Measured values from patent US20250352490A1, “P-SELECTIN TARGETED NANOPARTICLES AND USES THEREOF” (Ramot at Tel-Aviv University Ltd., priority 2023, published 2025).
Like-named read-outs stand apart in the source and are kept apart here. Values belong to the compound of their own block, whether it stands above or below them.

Assays:
D4M.3A cells = assay: Proliferation assay (cell count after 72 h), D4M.3A; type: cell-based, murine; conditions: Mus musculus, read-out: IC50 values
Procedure: (§1) Cell culture: Murine primary melanoma […].3A cells were obtained from Dartmouth College, Hanover. […].3A cells were cultured in Advanced DMEM growth media supplemented with 5% FBS, 100 μg/mL streptomycin, 100 IU/mL penicillin, 12.5 IU/mL nystatin, and 1% GlutaMAXTM (Gibco, Waltham, MA, USA). Human metastatic melanoma 131/4-5B1 cells were obtained from University of Toronto, Canada, and were cultured in RPMI 1640 medium supplemented with 10% FBS, 100 μg/mL streptomycin, 100 IU/mL penicillin, 12.5 IU/mL nystatin, and 2 mM L-Glutamine (Biological Industries Ltd, Kibbutz Beit Haemek, Israel). Human primary melanoma A375 cells were obtained from ATCC and were cultured in RPMI 1640 medium supplemented with 10% FBS, 100 μg/mL streptomycin, 100 IU/mL penicillin, 12.5 IU/mL nystatin, and 2 mM L-Glutamine. […] Following 72 hours incubation, the cells were counted using a Z1 Coulter Counter (Beckman Coulter). […] Isobolograns and combination index: The interactions between DBF and TRM were evaluated by constructing isobolograms for different drugs ratios and calculating their combination index (CI).^51 First, the inhibitory concentration (IC) values of treatment with DBF, TRM, and their combinations were calculated from the proliferation assays. […]

A375 cells = assay: Proliferation assay (cell count after 72 h), A375; type: cell-based; conditions: Homo sapiens, read-out: IC50 values
Procedure: as §1

melanoma patients = conditions: cited from earlier work
[1] = in vivo; cited from earlier work
pERK and ki67 in tumors = conditions: 30 mg/kg DBF daily, cited from earlier work
[2] = test system: PD-L1 expression in EMT6 cells; assay: PD-L1 expression in EMT6 cells by flow cytometry; type: cell-based, murine
Procedure: PD-L1 expression after treatments with talazoparib: EMT6 murine mammary carcinoma cells (obtained from ATCC) were incubated with talazoparib (0.1 nM, 10 nM, and 100 nM) for 24-72 hours and then harvested using FACS buffer (protein levels). 1×10^6 cells were incubated with anti-PD-L1 at 1 μg/ml antibody concentration (Mouse PD-L1/B7-H1 Alexa Fluor® 647-conjugated Antibody; R & D Systems #FAB90781R) or isotype antibody (Rabbit IgG Alexa Fluor®647-conjugated Antibody, R & D Systems #IC1051R) for 1 hour on ice. The cells were washed twice with FACS buffer and the fluorescence intensity was measured by Attune NxT Flow Cytometer and analyzed by Kaluza software. All treatments were compared to the secondary antibody only or to the corresponding isotype control.
PD-L1i blocking activity: In order to assess the PD-L1i small molecule inhibition activity, murine EMT6 cells were seeded in 24-well plate (2×10^4 cells/well). After 24 hours, the medium was replaced with medium containing PD-L1i (SM56; [Acúrcio et al. Journal for ImmunoTherapy of Cancer, 10(7), e004695 (2022)]) for 24-72 hours. The cells were then harvested with FACS buffer, washed and resuspended in FACS buffer. EMT6 cells (1×10^6) were incubated with anti-PD-L1 at 1 μg/ml antibody concentration (Mouse PD-L1/B7-H1 Alexa Fluor®647-conjugated Antibody; R & D Systems #FAB90781R) or isotype antibody (Rabbit IgG Alexa Fluor®647-conjugated Antibody, R & D Systems #IC1051R) for 1 hour on ice. Additionally, to evaluate synergistic activity of PD-L1i with talazoparib, EMT6 cells were treated with the combination of PD-L1i and talazoparib for 48 hours. Later, same antibody and incubation conditions described previously were followed. These experiments were reproduced trice, and the data represent the mean±SD.

EMT6 cells = assay: Proliferation assay, EMT6; type: cell-based, murine; conditions: Mus musculus
Procedure: (§2) Human MDA-MB-231 and MDA-MB-436, and murine 4T1 and EMT6 cells were obtained from the ATCC. EMT6, MDA-MB-231 and MDA-MB-436 cells were cultured in DMEM supplemented with 10% FBS, 100 IU/mL penicillin, 100 μg/mL streptomycin, 12.5 U/mL Nystatin, 2 mM L-glutamine. 4T1 cells were cultured in RPMI supplemented with 10% FBS, 100 IU/mL Penicillin, 100 μg/mL Streptomycin, 12.5 U/mL Nystatin, 2 mM L-glutamine, 1 mM sodium pyruvate and 10 mM HEPES Buffer. For MDA-MB-436, MDA-MB-23, 4T1 and EMT6, cells were seeded in 24-well plates (2.5×10^4, 2.5×10^4, 1×10^4, 2×10^3 cells/well, respectively) and incubated for 24 hours. Then, the cultured medium was replaced with a medium containing a serial dilution of talazoparib, talazoparib-loaded NPs or blank NPs (carrier only) for additional 72 hours. Untreated (control) cells were supplemented with fresh medium containing 0.1% DMSO. The cells were counted using a Z1 Coulter Counter (Beckman Coulter). Each treatment was assayed in triplicates, N=3.

MDA-MB-436 cells = assay: Proliferation assay, MDA-MB-436; type: cell-based; conditions: Homo sapiens; MDA-MB-436 (BRCA-mutated), 72 hours
Procedure: as §2

4T1 cells = assay: Proliferation assay, 4T1; type: cell-based, murine; conditions: Mus musculus; 4T1 (BRCA wild-type), 72 hours
Procedure: as §2

MDA-MB-231 cells = assay: Proliferation assay, MDA-MB-231; type: cell-based; conditions: Homo sapiens; MDA-MB-231 (BRCA wild-type), 72 hours
Procedure: as §2

[3] = test system: mCherry-labeled EMT6 3D spheroids; assay: mCherry-labeled EMT6 3D spheroids sprouting; type: cell-based, murine; conditions: Mus musculus, compared to the control
Procedure: Analysis of mCherry-labeled EMT6 3D spheroids sprouting: 3D spheroid of EMT6 cells (2000 cells/spheroid) were prepared in DMEM medium supplemented with 0.24 w/v % methyl cellulose. The cells were deposited in 25 μL droplets into the inner side of a 20 mm dish and incubated for 48 hours at 37° C. when the plate is facing upside down to allow for spheroid formation. The spheroids were then embedded in Matrigel®, seeded in a 96-well plate, and monitored for cell invasion into the Matrigel®. The 3D spheroids were treated with talazoparib (1 nM, 100 nM and 1 μM) and their sprouting in the Matrigel® was evaluated by measuring the % red area with ImageJ software.

[4] = test system: PD-L1 localizations in EMT6 cells; assay: dSTORM imaging of PD-L1 in EMT6 cells; type: cell-based, murine; conditions: increasing concentrations, 48 hours
Procedure: dSTORM imaging of PD-L1 after exposure of EMT6 cells to talazoparib: EMT6 cells were seeded in Ibidi μ-slide 8 well glass bottom chambered coverslips at a density of 5000 cells per well. After 24 hours incubation, cells were treated with Talazoparib for 48 hours ([…]). After 48 hours cells were washed 1× with PBS and fixed using 3.7% formaldehyde solution for 10 minutes at room temperature. After fixation, cells were washed trice with PBS and incubated with 5% BSA solution overnight at 4° C. […] Between 6 and 10 cells were imaged for each condition. dSTORM images were analyzed with the Nikon NIS elements software (version 5.21.01). dSTORM localizations were detected using Gaussian fitting, with a minimum intensity threshold height of 150 for the 647 nm channel. Molecules detected in 5 consecutive frames were considered as a single blinking event, while molecules detected in more than 5 frames were discarded. […] The resulting x-y coordinates of the detected localizations were imported and run through a custom MATLAB scrip to quantify the localization density per cell. Each cell was manually selected by drawing an ROI around the cell contour (detected in the 488 channel). […]

PD-L1 RNA in EMT6 cells = assay: PD-L1 mRNA in EMT6 cells by q-Real time PCR; type: cell-based, murine; conditions: 10 nM, 24-72 hours
Procedure: q-Real time PCR: Total RNA was isolated from cultured cells using the Direct-zol RNA Miniprep Plus (Zymo Research), according to the manufacturer's instructions. Once isolated, one microgram of RNA was reverse transcribed to cDNA using qScript cDNA synthesis kit (Quantabio, MA, USA). The cDNA was further diluted (1:50 in DNase/RNase-Free Water) for the qPCR. PD-L1 mRNA levels were assessed by SYBR green real-time PCR (StepOne plus; Thermo Fisher Scientific, Waltham, MA, USA) using PerFecTa SYBR Green FastMix ROX (Quanta BioSciences) and the following custom primers: murine PD-L1: forward, 5′-[…]-3′, reverse, 5′-[…]-3′. GAPDH: forward, 5′-ATTCCACCCATGGAATTC-3′, reverse, 5′-[…]-′3.

SMILES: CC(C)(C)c1nc(-c2cccc(NS(=O)(=O)c3c(F)cccc3F)c2F)c(-c2ccnc(N)n2)s1 [DBF, dabrafenib]
- IC50 (D4M.3A cells; 72 h): 4.9 nM
- IC50 (A375 cells; A-375, 72 h): 13.6 nM
- Overall survival (OS) (melanoma patients): 18.7 months
- Progression-free survival (PFS) (melanoma patients): 8.8 months
- Steady-state brain to plasma concentration ratio [1]: 0.019±0.02
- Inhibition of pERK in tumors (pERK and ki67 in tumors; 6 hours post-final dose): 89%
- Reduction in ki67 in tumors (pERK and ki67 in tumors; 6 hours post-final dose): 28%
- Duration of pERK reduction in tumors post-dose (pERK and ki67 in tumors): up to 18 hours

- IC50 (A375 cells; A-375, A375, 72 hours): 8.5 nM
SMILES: CC(=O)Nc1cccc(-n2c(=O)n(C3CC3)c(=O)c3c(Nc4ccc(I)cc4F)n(C)c(=O)c(C)c32)c1 [TRM, trametinib]
- IC50 (D4M.3A cells; D4M.3A, 72 hours): 8.6 nM
- Steady-state brain to plasma concentration ratio [1]: 0.03±0.01

SMILES: O=C1c2ccccc2C(=O)N1CNc1ccc(Oc2ccc(Cl)cc2)cc1 [SM56]
- Reduction of PD-L1 expression compared to untreated cells ([2]; 10 μM PD-L1i alone, 48 hours): about 40%
- PD-L1 expression over time ([2]; 10 μM, 24-72 hours): reduction in PD-L1 expression in a time-dependent manner

- IC50 (MDA-MB-436 cells): 2 nM
- IC50 (4T1 cells): 58 nM
- IC50 (MDA-MB-231 cells): 411 nM
SMILES: Cn1ncnc1[C@H]1c2n[nH]c(=O)c3cc(F)cc(c23)N[C@@H]1c1ccc(F)cc1 [talazoparib]
- IC50 (EMT6 cells; EMT6 (BRCA-mutated), 72 hours): 10 nM
- IC50 (EMT6 cells; EMT6 proliferation, NPs versus free drug (FIG. 32)): 8 nM
- inhibition at 1 µM [3]: 70%
- PD-L1 expression relative to untreated cells ([2]; 10 nM talazoparib and/or 10 μM PD-L1i, 48 hours): 3 folds
- PD-L1 protein expression ([2]; 10 nM, 24-72 hours): time-dependent increase in PD-L1 expression
- PD-L1 protein expression ([2]; increasing concentrations, 72 hours): induced PD-L1 expression in EMT6 cells in a dose-dependent manner
- PD-L1 localizations and protein density (dSTORM) [4]: increased number of PD-L1 localizations and higher PD-L1 protein density
- PD-L1 RNA level (PD-L1 RNA in EMT6 cells): time-dependent increase in PD-L1 expression
